Where two headings read alike, the source gives them in different places.
Columns and labels:
CDK10/Cyclin L2 = CDK10/Cyclin L2 (Homo sapiens, UniProt Q15131); test: NanoBRET live-cell target engagement, CDK10-NanoLuc/Cyclin L2 in HEK-293; conditions: read-out: CDK10/L2 Inhibition at 10µM (%), 10µM
CDK13/Cyclin K = CDK13/Cyclin K (Homo sapiens, UniProt Q14004); test: NanoBRET live-cell target engagement, CDK13-NanoLuc/Cyclin K in HEK-293; assay type: binding; conditions: read-out: CDK13/K Inhibition at 10µM (%), 10µM
CDK9/Cyclin K = CDK9/Cyclin K (Homo sapiens, UniProt P50750); test: NanoBRET live-cell target engagement, NanoLuc-CDK9/Cyclin K in HEK-293; assay type: binding
CDK8/Cyclin C = CDK8/Cyclin C (Homo sapiens, UniProt P49336); test: NanoBRET live-cell target engagement, NanoLuc-CDK8/Cyclin C in HEK-293; assay type: binding; conditions: read-out: CDK8/C Inhibition at 10µM (%), 10µM
CDK12/Cyclin K = CDK12/Cyclin K (Homo sapiens, UniProt Q9NYV4); test: NanoBRET live-cell target engagement, CDK12-NanoLuc/Cyclin K in HEK-293; assay type: binding; conditions: read-out: CDK12/K Inhibition at 10µM (%), 10µM
CDK11A/Cyclin L2 = biological target: T1, CDK11A/Cyclin L2 (Homo sapiens, UniProt Q9UQ88); test: NanoBRET live-cell target engagement, CDK11A-NanoLuc/Cyclin L2 in HEK-293; assay type: binding; conditions: read-out: CDK11a/L2 Inhibition at 10µM (%), 10µM
T1 sequence (Q9UQ88 1-783): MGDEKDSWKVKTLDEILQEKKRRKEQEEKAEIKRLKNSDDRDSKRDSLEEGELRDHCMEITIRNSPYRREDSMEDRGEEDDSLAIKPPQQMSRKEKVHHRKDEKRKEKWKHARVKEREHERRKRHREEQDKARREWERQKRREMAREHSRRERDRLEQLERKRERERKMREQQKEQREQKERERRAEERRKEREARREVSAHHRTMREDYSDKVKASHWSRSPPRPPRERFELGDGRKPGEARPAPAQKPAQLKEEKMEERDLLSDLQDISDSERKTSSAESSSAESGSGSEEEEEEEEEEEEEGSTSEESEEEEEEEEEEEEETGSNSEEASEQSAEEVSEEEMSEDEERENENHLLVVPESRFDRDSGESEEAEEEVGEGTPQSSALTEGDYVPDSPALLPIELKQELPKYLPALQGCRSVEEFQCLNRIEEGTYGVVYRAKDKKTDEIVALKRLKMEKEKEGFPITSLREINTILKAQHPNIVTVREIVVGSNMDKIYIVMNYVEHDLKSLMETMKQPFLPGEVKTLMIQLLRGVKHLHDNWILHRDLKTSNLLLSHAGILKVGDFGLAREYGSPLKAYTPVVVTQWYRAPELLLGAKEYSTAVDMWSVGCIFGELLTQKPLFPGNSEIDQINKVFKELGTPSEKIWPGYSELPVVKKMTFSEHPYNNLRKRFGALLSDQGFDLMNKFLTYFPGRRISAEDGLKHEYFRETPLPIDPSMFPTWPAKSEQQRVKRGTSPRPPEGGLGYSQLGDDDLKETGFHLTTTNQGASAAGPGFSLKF

CDK4/Cyclin D1 = CDK4/Cyclin D1 (Homo sapiens, UniProt P11802); test: NanoBRET live-cell target engagement, NanoLuc-CDK4/Cyclin D1 in HEK-293; assay type: binding; conditions: 10µM, read-out: CDK4/D1 Inhibition at 10µM (%)
CDK19/Cyclin C = CDK19/Cyclin C (Homo sapiens, UniProt Q9BWU1); test: NanoBRET live-cell target engagement, NanoLuc-CDK19/Cyclin C in HEK-293; conditions: read-out: CDK19/C Inhibition at 10µM (%), 10µM
CDK7 = CDK7 (Homo sapiens, UniProt P50613); test: NanoBRET live-cell target engagement, NanoLuc-CDK7 in HEK-293; assay type: binding; conditions: read-out: CDK7 Inhibition at 10µM (%), 10µM
CDK20/Cyclin H = CDK20/Cyclin H (Homo sapiens, UniProt Q8IZL9); test: NanoBRET live-cell target engagement, NanoLuc-CDK20/Cyclin H in HEK-293; assay type: binding; conditions: read-out: CDK20/H Inhibition at 10µM (%), 10µM
CDK11B/Cyclin L2 = CDK11B/Cyclin L2 (Homo sapiens, UniProt P21127); test: NanoBRET live-cell target engagement, CDK11B-NanoLuc/Cyclin L2 in HEK-293; assay type: binding; conditions: read-out: CDK11b/L2 Inhibition at 10µM (%), 10µM
CDK6/Cyclin D1 = CDK6/Cyclin D1 (Homo sapiens, UniProt Q00534); test: NanoBRET live-cell target engagement, NanoLuc-CDK6/Cyclin D1 in HEK-293; assay type: binding; conditions: read-out: CDK6/D1 Inhibition at 10µM (%), 10µM
Sequence of CDK6/Cyclin D1 (Q00534 whole entry): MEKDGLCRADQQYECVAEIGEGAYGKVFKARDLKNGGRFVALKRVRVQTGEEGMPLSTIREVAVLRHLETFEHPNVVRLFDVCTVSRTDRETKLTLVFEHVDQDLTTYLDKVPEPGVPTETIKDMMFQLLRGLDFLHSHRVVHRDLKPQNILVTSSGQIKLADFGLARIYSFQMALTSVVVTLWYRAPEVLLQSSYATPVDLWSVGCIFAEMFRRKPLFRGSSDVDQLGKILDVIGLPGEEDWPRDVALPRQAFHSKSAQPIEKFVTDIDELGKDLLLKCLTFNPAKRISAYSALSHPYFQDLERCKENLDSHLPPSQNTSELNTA
Sequence of CDK6/Cyclin D1 (P24385 whole entry partner): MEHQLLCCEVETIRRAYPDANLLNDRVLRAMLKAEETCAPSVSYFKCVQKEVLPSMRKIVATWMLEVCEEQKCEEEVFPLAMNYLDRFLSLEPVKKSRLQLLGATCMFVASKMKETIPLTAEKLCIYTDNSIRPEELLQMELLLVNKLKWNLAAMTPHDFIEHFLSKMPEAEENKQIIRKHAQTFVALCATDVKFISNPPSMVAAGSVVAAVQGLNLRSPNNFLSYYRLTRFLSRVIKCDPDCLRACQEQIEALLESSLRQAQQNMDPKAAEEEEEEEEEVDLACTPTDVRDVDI

Sequence of CDK19/Cyclin C (Q9BWU1 whole entry): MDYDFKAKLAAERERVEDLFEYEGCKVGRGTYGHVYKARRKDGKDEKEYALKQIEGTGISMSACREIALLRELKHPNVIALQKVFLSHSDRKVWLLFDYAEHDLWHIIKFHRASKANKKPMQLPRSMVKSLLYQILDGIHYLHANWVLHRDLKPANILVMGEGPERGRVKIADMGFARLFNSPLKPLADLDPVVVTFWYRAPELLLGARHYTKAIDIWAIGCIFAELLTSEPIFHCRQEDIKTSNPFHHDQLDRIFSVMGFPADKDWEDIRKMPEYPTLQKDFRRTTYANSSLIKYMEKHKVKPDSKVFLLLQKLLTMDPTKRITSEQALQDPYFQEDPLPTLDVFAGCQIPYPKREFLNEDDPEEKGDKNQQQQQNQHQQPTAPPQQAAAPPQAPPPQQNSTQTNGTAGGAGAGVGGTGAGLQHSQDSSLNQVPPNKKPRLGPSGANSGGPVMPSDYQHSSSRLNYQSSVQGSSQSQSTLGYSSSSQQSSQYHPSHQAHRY
Sequence of CDK19/Cyclin C (P24863 whole entry partner): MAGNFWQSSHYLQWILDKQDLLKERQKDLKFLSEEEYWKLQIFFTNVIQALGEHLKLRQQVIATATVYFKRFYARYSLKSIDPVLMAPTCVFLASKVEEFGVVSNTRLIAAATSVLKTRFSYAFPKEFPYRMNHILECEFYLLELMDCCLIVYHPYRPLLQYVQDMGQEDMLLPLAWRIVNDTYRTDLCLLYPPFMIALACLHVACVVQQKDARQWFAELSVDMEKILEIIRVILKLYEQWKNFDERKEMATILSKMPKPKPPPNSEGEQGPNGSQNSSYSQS
Sequence of CDK4/Cyclin D1 (P11802 whole entry): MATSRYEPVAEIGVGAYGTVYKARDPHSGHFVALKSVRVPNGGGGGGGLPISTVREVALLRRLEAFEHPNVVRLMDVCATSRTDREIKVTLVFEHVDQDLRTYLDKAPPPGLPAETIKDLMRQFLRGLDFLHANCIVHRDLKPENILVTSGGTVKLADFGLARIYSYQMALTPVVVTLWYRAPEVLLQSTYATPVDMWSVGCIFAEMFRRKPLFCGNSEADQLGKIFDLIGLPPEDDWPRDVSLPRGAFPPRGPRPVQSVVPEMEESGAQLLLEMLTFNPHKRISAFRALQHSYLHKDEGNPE
Sequence of CDK4/Cyclin D1 (P24385 whole entry partner): as the sequence (P24385 whole entry partner) above
Sequence of CDK10/Cyclin L2 (Q15131 whole entry): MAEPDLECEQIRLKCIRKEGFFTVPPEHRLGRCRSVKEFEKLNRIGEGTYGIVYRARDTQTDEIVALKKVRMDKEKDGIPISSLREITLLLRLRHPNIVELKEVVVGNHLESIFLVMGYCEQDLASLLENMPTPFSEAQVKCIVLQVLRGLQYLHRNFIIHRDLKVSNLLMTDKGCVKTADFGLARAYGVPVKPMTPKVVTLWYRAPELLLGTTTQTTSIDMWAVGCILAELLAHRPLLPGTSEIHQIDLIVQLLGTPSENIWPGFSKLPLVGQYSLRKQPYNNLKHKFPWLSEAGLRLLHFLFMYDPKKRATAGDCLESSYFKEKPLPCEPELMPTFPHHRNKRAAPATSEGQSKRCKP
Sequence of CDK11B/Cyclin L2 (P21127 1-782 isoform P21127-2): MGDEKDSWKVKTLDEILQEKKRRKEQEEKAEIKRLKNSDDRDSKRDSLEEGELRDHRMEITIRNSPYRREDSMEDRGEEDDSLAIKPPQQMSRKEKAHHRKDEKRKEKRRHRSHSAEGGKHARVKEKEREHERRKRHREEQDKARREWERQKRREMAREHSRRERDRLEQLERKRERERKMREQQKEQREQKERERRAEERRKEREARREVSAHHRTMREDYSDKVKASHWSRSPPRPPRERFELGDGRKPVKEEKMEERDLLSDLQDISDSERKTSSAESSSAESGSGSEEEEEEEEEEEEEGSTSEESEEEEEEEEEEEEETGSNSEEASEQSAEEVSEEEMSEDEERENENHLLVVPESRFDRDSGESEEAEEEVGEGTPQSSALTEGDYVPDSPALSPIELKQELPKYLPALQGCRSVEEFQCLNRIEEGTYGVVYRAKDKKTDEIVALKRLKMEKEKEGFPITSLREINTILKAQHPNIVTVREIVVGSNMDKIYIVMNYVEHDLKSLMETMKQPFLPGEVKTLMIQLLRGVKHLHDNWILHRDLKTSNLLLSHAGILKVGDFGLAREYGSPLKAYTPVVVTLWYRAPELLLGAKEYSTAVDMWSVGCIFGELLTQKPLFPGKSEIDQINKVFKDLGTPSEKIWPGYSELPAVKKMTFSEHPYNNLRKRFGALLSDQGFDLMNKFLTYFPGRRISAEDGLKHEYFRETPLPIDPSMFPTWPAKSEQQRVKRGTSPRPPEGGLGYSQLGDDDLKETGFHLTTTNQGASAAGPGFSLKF
Sequence of CDK8/Cyclin C (P49336 whole entry): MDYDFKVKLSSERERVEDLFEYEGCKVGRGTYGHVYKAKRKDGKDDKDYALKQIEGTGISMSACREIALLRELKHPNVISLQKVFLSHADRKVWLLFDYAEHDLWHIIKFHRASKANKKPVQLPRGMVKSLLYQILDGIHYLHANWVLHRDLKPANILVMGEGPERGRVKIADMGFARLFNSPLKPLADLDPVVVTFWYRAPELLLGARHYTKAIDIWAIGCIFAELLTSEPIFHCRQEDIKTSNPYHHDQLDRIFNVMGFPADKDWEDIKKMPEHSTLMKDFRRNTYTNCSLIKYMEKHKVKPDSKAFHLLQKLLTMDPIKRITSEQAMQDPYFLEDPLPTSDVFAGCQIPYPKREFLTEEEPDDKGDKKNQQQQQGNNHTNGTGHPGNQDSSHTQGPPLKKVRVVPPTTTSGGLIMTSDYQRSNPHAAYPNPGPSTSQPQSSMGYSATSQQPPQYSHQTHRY
Sequence of CDK8/Cyclin C (P24863 whole entry partner): as the sequence (P24863 whole entry partner) above
Sequence of CDK7 (P50613 whole entry): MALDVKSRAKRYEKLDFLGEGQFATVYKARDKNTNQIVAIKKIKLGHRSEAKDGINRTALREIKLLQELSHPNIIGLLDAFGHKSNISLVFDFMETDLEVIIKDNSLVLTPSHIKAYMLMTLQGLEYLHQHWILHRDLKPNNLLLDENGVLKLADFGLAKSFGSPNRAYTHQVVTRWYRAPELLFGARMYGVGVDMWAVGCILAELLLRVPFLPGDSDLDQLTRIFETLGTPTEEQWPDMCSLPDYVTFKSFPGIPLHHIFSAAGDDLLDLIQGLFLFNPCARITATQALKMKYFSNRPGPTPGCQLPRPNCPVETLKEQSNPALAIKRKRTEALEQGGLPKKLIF
Sequence of CDK20/Cyclin H (Q8IZL9 whole entry): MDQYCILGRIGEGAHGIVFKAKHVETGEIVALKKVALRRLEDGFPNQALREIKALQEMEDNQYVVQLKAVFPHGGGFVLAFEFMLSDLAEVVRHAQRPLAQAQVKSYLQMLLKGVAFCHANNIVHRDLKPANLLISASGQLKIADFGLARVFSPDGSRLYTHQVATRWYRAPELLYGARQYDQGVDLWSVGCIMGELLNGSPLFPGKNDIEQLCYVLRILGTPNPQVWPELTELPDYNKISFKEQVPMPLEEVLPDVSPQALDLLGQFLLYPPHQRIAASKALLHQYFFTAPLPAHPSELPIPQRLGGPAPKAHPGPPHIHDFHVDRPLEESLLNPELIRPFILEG
Sequence of CDK20/Cyclin H (P51946 whole entry partner): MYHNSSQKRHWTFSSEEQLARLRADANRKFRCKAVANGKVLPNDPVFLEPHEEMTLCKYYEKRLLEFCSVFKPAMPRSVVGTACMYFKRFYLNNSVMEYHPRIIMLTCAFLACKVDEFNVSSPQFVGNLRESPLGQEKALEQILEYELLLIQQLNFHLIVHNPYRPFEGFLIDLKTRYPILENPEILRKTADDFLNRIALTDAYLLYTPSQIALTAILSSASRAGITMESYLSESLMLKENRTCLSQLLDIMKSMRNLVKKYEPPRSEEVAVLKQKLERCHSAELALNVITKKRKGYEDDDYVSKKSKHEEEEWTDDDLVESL

CC[C@H](CO)Nc1nc(NCc2ccccc2)c2ncn(C(C)C)c2n1 [Roscovitine]
inhibition at 10 µM (CDK10/Cyclin L2; average of experiments): 9.7% | inhibition at 10 µM (CDK10/Cyclin L2; independent experiment 1): 10.4% | inhibition at 10 µM (CDK10/Cyclin L2; independent experiment 2): 9% | inhibition at 10 µM (CDK13/Cyclin K; average of experiments): 4.6% | inhibition at 10 µM (CDK13/Cyclin K; independent experiment 1): 9.6% | inhibition at 10 µM (CDK13/Cyclin K; independent experiment 2): -0.3% | CDK9/K Inhibition at 10µM (%) (CDK9/Cyclin K; 10 µM): 52.2% | inhibition at 10 µM (CDK9/Cyclin K; read-out: CDK9/K Inhibition at 10µM (%)): 50.4% | inhibition at 10 µM (CDK8/Cyclin C; average of experiments): 2.5% | inhibition at 10 µM (CDK8/Cyclin C; independent experiment 1): 1.7% | inhibition at 10 µM (CDK8/Cyclin C; independent experiment 2): 3.4% | inhibition at 10 µM (CDK12/Cyclin K; independent experiment 1): 7.1% | inhibition at 10 µM (CDK12/Cyclin K; independent experiment 2): 15.8% | inhibition at 10 µM (CDK11A/Cyclin L2; average of experiments): 2.5% | inhibition at 10 µM (CDK11A/Cyclin L2; independent experiment 2): -3.8% | inhibition at 10 µM (CDK4/Cyclin D1; average of experiments): -3.2% | inhibition at 10 µM (CDK4/Cyclin D1; independent experiment 1): 29.6% | inhibition at 10 µM (CDK4/Cyclin D1; independent experiment 2): -35.9% | inhibition at 10 µM (CDK19/Cyclin C; average of experiments): 17% | inhibition at 10 µM (CDK19/Cyclin C; independent experiment 1): 23.5% | inhibition at 10 µM (CDK19/Cyclin C; independent experiment 2): 10.4% | inhibition at 10 µM (CDK7; independent experiment 1): 52.6% | inhibition at 10 µM (CDK7; independent experiment 2): 57.2% | inhibition at 10 µM (CDK20/Cyclin H; independent experiment 1): 8.8% | inhibition at 10 µM (CDK20/Cyclin H; independent experiment 2): 17.9% | inhibition at 10 µM (CDK11B/Cyclin L2; average of experiments): 7.8% | inhibition at 10 µM (CDK11B/Cyclin L2; independent experiment 1): 11.9% | inhibition at 10 µM (CDK11B/Cyclin L2; independent experiment 2): 3.7% | inhibition at 10 µM (CDK6/Cyclin D1; independent experiment 1): 19.8% | inhibition at 10 µM (CDK6/Cyclin D1; independent experiment 2): 12.4%

Source: publication PMC7265341, “Quantifying CDK inhibitor selectivity in live cells” (Nature Communications, 2020)
